# Test results published in PMC10458471, “Electrophysiological Assessment of Newly Synthesized 2,3-Benzodiazepine Derivatives for Inhibiting the AMPA Receptor Channel” (Molecules, 2023).
# Read-outs that look alike come from different tables or passages of the source.
# Experiments:
# GluA1 = biological target: T1, GluA1 (Rattus norvegicus, UniProt P19490); experiment: Whole-cell patch-clamp recording of homomeric GluA1 AMPAR expressed in HEK293T cells; type: cell-based
# T1 construct: expressed in transfected cells; host or cells: HEK293T
# T1 sequence (P19490 19-907 isoform P19490-2 limits assumed): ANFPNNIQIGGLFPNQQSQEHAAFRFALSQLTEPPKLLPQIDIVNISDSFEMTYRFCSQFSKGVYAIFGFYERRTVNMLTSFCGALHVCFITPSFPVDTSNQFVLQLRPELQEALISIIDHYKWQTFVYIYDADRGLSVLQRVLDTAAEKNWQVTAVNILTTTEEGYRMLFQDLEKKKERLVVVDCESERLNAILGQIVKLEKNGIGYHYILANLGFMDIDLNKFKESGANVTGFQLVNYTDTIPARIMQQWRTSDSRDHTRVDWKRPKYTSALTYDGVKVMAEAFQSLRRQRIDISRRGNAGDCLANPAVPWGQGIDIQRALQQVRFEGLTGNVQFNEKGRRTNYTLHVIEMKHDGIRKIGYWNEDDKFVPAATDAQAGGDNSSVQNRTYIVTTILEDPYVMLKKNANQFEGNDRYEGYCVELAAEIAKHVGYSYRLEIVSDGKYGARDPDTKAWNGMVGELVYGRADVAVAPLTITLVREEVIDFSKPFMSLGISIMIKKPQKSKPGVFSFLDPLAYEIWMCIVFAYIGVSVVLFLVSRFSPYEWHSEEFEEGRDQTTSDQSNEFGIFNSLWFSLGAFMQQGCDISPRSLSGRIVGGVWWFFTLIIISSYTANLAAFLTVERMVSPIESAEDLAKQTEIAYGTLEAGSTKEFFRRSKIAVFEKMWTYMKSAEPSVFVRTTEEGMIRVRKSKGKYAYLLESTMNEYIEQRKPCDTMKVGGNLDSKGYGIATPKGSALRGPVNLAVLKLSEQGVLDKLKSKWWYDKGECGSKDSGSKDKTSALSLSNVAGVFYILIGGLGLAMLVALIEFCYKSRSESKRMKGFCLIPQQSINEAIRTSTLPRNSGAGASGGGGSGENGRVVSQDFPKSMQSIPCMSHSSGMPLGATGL
# Experimental: (§1) For the DNA preparation, the QIAGEN Plasmid Mini Kit was used to prepare up to 20 µg of high-copy plasmid DNA [30]. All AMPAR subunits utilized in this study included the flip isoform received from S. F. Heinemann (Salk Institute, La Jolla, CA, USA) and sub-cloned in pRK for expression in Human Embryonic Kidney Cells 293 (HEK293T). The human embryonic kidney (HEK293T) cells were obtained from Sigma, Taufkirchen, Germany, and we only used the HEK293T cell line due to their ease of growth and transfection and wide utilization in cell culture. For the transfection, we used the constructs GluA1, GluA2, GluA2/3, and GluA1/2, along with the GFP-expressing construct, as described in our previous work. The transfection reagents utilized were jetPRIME (Polyplus: New York, NY, USA) or Lipofectamine 2000 (Invitrogen; San Diego, CA, USA). The highly fluorescent cells were identified and selected for recording. The selected cells were seeded in Dulbecco Modified Eagle Medium (DMEM) (Sigma, Roedermark, Germany) containing 10% FBS, 0.1 mg/mL streptomycin, and 1 mM sodium pyruvate (Biological Industries; Beit-Haemek, Israel). The cells were incubated at 37 °C with 5% CO2 added to the medium and subcultured twice a week until they reached passage #20. Following a day and a half, the cells were replated on coverslips covered with Laminin (1 mg/mL; Sigma, Roedermark, Germany) for electrophysiological recordings. Our previous work has detailed the DNA preparation, cDNA transient transfection, and cell culture of HEK293T [30, 31, 32, 33].
# (§2) After that, a patch was placed in front of a rapid perfusion system comprised of a theta tube flow pipe mounted on a piezoelectric translator that was used to wash the cell continuously from one barrel while the other supplied the compound of interest to the cell. Recordings were conducted 36–48 h after transfection at 22 °C, with a membrane potential of −60 mV. Currents were amplified using an integrated patch amplifier (IPA, Sutter Instruments, Novato, CA, USA), filtered at 2 kHz, and digitized at 10 kHz using SutterPatch Software v. 1.1.1 [46]. […] The extracellular medium contained (in mM): 150 NaCl, 2.8 KCl, 0.5 MgCl2, 2 CaCl2, and 10 HEPES, pH 7.4 adjusted with NaOH. The holding potential was typically −60 mV. The sample size was determined to be eight viable cells to calculate the mean inhibition of the derivative of interest. The solution exchange time (10–90% to peak) was estimated at […] using open-tip control at the end of a recording. Inhibition was calculated by comparing the current observed when the cell was supplied with glutamate alone and when the same cell was supplied with both glutamate and the 2,3-BDZ compounds. The initial tube containing only glutamate was reintroduced to the cell to ensure cellular safety and authenticate the antagonist’s findings. This step ensured that the glutamate-induced current observed before the administration of the antagonist was nearly indistinguishable from the current observed after administration.
# (§3) The experiment served two purposes: first, determining the whole-cell current amplitude ratio in the absence and presence of the compounds (A/AI) to derive a constant inhibitory value independent of the rate measurement. Second, as an independent control method, a fast exchange solution flow methodology was employed using piezoelectric actuators, providing the fastest exchange solution with open-tip current rise times in the 100–300 μs range to assess the amplitude of the whole-cell current. Detailed data analysis of this process is provided in the supporting information (Tables S1–S4).
# (§4) The data acquired were analyzed using Igor Pro7 (Wave Metrics, Inc., Portland, OR, USA). Receptor desensitization (τw des) and deactivation rates were estimated by fitting the current decay starting from 95% of the peak to the baseline current using a double exponential formulation. […]
# GluA2/3 = biological target: T2, GluA2/3 (Rattus norvegicus, UniProt P19491+P19492); experiment: Whole-cell patch-clamp recording of heteromeric GluA2/3 AMPAR expressed in HEK293T cells; type: cell-based
# T2 construct: expressed in transfected cells; host or cells: HEK293T
# T2 sequence (P19491 22-883 isoform P19491-2 limits assumed): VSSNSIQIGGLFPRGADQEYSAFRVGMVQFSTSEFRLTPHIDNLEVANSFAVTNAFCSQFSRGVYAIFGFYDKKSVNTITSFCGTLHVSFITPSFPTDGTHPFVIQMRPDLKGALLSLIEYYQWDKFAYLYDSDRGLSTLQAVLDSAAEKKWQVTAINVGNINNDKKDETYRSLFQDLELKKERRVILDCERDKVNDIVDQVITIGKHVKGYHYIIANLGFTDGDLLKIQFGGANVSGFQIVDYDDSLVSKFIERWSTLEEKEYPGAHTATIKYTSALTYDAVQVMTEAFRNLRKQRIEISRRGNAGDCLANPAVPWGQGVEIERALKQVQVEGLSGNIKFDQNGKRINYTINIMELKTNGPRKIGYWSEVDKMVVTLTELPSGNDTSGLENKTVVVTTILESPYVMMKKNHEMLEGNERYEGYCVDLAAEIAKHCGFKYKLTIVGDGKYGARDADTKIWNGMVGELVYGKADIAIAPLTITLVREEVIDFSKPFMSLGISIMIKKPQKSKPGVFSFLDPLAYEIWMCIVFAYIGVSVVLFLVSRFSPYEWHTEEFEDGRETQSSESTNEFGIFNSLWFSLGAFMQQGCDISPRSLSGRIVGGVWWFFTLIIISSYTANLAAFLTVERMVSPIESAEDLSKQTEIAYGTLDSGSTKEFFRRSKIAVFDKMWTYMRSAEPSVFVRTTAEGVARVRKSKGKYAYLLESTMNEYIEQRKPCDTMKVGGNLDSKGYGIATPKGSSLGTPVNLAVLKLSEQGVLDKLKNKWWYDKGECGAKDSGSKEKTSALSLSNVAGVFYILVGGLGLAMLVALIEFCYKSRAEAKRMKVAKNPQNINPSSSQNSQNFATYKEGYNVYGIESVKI
# T2 sequence (P19492 23-888 isoform P19492-2 limits assumed): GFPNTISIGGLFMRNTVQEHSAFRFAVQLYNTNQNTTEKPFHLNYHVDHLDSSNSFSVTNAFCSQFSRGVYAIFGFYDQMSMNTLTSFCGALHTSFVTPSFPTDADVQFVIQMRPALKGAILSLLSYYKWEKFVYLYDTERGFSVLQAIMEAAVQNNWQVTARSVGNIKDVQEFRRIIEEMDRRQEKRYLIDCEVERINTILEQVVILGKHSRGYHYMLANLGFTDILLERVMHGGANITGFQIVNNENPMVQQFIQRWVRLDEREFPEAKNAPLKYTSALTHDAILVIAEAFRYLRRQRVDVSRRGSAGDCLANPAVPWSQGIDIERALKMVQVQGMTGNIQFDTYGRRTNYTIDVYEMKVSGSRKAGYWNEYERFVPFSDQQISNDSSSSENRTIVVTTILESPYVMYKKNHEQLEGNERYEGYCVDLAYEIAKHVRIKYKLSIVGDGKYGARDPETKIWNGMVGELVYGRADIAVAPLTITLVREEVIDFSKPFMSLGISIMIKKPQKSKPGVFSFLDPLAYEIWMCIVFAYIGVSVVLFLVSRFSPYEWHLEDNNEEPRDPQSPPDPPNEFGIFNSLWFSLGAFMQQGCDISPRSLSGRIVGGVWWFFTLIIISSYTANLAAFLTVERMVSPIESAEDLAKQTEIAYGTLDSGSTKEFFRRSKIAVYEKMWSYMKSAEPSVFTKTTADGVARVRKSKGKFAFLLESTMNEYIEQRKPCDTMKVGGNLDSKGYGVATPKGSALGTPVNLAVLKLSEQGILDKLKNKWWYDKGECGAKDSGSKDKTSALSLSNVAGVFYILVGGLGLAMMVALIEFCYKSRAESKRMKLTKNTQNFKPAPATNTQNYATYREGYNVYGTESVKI
# Experimental: as §1, §2, §3, §4
# AMPA receptor subunits = experiment: Whole-cell patch-clamp recording, statements over all tested AMPAR subunits (GluA1, GluA1/2, GluA2, GluA2/3) in HEK293T cells; type: cell-based; conditions: 16 µM compound
# Experimental: as §1, §2, §3, §4
# GluA2 = biological target: T3, GluA2 (Rattus norvegicus, UniProt P19491); experiment: Whole-cell patch-clamp recording of homomeric GluA2 AMPAR expressed in HEK293T cells; type: cell-based
# T3 construct: expressed in transfected cells; host or cells: HEK293T
# T3 sequence (P19491 22-883 isoform P19491-2 limits assumed): as the sequence (P19491 22-883 isoform P19491-2 limits assumed) above
# Experimental: as §1, §2, §3, §4
# GluA1/2 = biological target: T4, GluA1/2 (Rattus norvegicus, UniProt P19490+P19491); experiment: Whole-cell patch-clamp recording of heteromeric GluA1/2 AMPAR expressed in HEK293T cells; type: cell-based
# T4 construct: expressed in transfected cells; host or cells: HEK293T
# T4 sequence (P19490 19-907 isoform P19490-2 limits assumed): as the sequence (P19490 19-907 isoform P19490-2 limits assumed) above
# T4 sequence (P19491 22-883 isoform P19491-2 limits assumed): as the sequence (P19491 22-883 isoform P19491-2 limits assumed) above
# Experimental: as §1, §2, §3, §4
# [1] = 10 mM glutamate + 16 µM compound, -60 mV, pH 7.4, 22 °C, mean±SEM, n=8
# [2] = 10 mM glutamate, 16 µM compound, n=8
# [3] = 1 ms 10 mM glutamate + 16 µM compound, n=8
# [4] = 500 ms 10 mM glutamate + 16 µM compound, n=8
# [5] = log of IC50, read-out: Log IC50 (converted)
# [6] = normalized peak current, -60 mV, pH 7.4, 22 °C, read-out: IC50
# [7] = washout/recovery, glutamate alone after compound, n=8
structure (smiles),measurement,setting,value
"O=C1Cc2cc3c(cc2C(c2ccc([N+](=O)[O-])cc2F)=NN1)OCO3 [2,3-BDZ-3]",Amplitude with compound,GluA1; [1],237±12 pA
same,A/AI (current amplitude ratio without/with compound),GluA1; [2],3.94±0.2
same,t deact (weighted deactivation time constant),GluA1; [3],2.4 ± 0.1 ms
same,t des (weighted desensitization time constant),GluA1; [4],2.1 ± 0.1 ms
same,IC50,GluA1; [5],5.75 µM
same,IC50,GluA1; [6],5.8 µM
same,"Amplitude, applying glutamate alone after compound",GluA1; [7],936±46 pA
same,Amplitude with compound,GluA2/3; [1],130±12 pA
same,A/AI (current amplitude ratio without/with compound),GluA2/3; [2],4.08±0.3
same,t deact (weighted deactivation time constant),GluA2/3; [3],2.9 ± 0.2 ms
same,t des (weighted desensitization time constant),GluA2/3; [4],2.5 ± 0.2 ms
same,IC50,GluA2/3; [5],5.75 µM
same,IC50,GluA2/3; [6],5.76 µM
same,"Amplitude, applying glutamate alone after compound",GluA2/3; [7],525±22 pA
same,Effect on desensitization rate,AMPA receptor subunits,no change
same,Reduction in AMPAR subunit currents,AMPA receptor subunits,4 fold
same,Effect on deactivation rate of the AMPAR subunits examined,AMPA receptor subunits; 1 ms glutamate,no change
same,Amplitude with compound,GluA2; [1],326±17 pA
same,A/AI (current amplitude ratio without/with compound),GluA2; [2],4.16±0.2
same,t deact (weighted deactivation time constant),GluA2; [3],2.8 ± 0.1 ms
same,t des (weighted desensitization time constant),GluA2; [4],2.3 ± 0.1 ms
same,IC50,GluA2; [5],5.75 µM
same,IC50,GluA2; [6],5.74 µM
same,melting point,,182 to 184 °C
same,Amplitude with compound,GluA1/2; [1],144±11 pA
same,A/AI (current amplitude ratio without/with compound),GluA1/2; [2],3.98±0.2
same,t deact (weighted deactivation time constant),GluA1/2; [3],2.8 ± 0.2 ms
same,t des (weighted desensitization time constant),GluA1/2; [4],4.9 ± 0.3 ms
same,IC50,GluA1/2; [5],5.75 µM
same,IC50,GluA1/2; [6],5.79 µM
same,"Amplitude, applying glutamate alone after compound",GluA1/2; [7],569±43 pA
